Experimental data reported in patent publication US8008478B2, “Process for the preparation of cefixime” (Lupin Limited, priority 2004, dated 2011).

Test: Solubility check of a 3.3% solution of cefixime (I) in methanol
Type: physicochemical
Settings: for Solubility: 3.3% solution of cefixime (I) in methanol
Procedure: The most preferred embodiment of the present invention is the acidification of the filtrate obtained in step (ii) to pH 2.0 to 3.0, preferably to 2.2 to 2.4 with dilute […] filtration at 50-80°, preferably at 60-70° C., most preferably at 64-68° C.

**Q.** What does the source list for `C=CC1=C(C(=O)O)N2C(=O)C(NC(=O)/C(=N\OCC(=O)O)c3csc(N)n3)C2SC1` (stereo not drawn) [cefixime (I), [6R-[6α,7β(Z)]]-7-[[(2-amino-4-thiazolyl)[(carboxymethoxy)imino]acetyl]amino]-3-vinyl-3-cephem-4-carboxylic acid]?
**A.** Solubility (acidification and isolation of cefixime methyl ester (IV) at 25-30° C.): Hazy; Solubility (acidification and isolation of cefixime methyl ester (IV) at 45-47° C.): Hazy; Solubility (acidification and isolation of cefixime methyl ester (IV) at 65-67° C.): Clear; Solubility profile (in words) (acidification and isolation of cefixime ester (IV) at 50-80° C., then alkaline hydrolysis): better solubility profile; Solubility (in words) (acidification and isolation of cefixime ester (IV) at temperature below 50° C., then alkaline hydrolysis): poor solubility
